From US6294521A, “Phosphosugars and phosphosugar-containing compounds having anti-inflammatory activity” (Australian National University, priority 1996, dated 2001)

Experiments:
[1] = tested on: mannose-6-phosphate receptor (insulin-like growth factor II or IGF-II receptor); assay: Competitive binding assay: uptake of fluorescein-labelled polysaccharide (PPME) by U937 monocytes; type: cell-based, human (U937 cell line); settings: uptake of fluoresceinated-PPME (100 μg/ml), U937 cells, 60 minutes at 37° C.; FIG. 1
Excerpt: The novel mannoside 6-phosphates have similar affinities for the mannose-6-phosphate receptor (insulin-like growth factor II or IGF-II receptor) as the natural ligand, mannose-6-phosphate. In order to assess the binding of the novel mannoside 6-phosphates to the M6P receptor a competitive binding assay was used. In this assay a fluorescein-labelled, polysaccharide (PPME) which contains abundant mannose-6-phosphate groups, was used to detect uptake through the M6P receptor on human monocytes (U937 cell line). PPME was isolated and purified by the method of Bretthauer et al., (23) from the exopolysaccharide secreted by the yeast Pichia holstii. […]
The human monocyte cell line U937, which has a relatively high content of M6P receptors on its cell Surface (25), was obtained from the American Type Culture Collection (Rockville, Md.) and was maintained in RPMI 1640 medium (Gibco, Gaitersburg, Md.) supplemented with 2 mg/ml sodium bicarbonate, 0.2 mM glutamine, 30 μg/ml penicillin, 50 μg/ml streptamycin sulfate and 50 μg/ml neomycin sulfate and 10% foetal calf serum (FCS; Commonwealth Sarum Laboratories, Melbourne, Anstalia) at 37° C. […] Following incubations, the cells were washed twice with 10% FCS/RPMI and once with PBS and then fixed with 1% paraformaldehyde in PBS and analysed for fluorescence by flow cytometry. […]

[2] = Inhibition of passively-transferred EAE in rats, parenteral treatment; type: in vivo, Lewis rats; settings: for inhibition of development of disease (EAE), in words: 8 hourly subcutaneous doses for seven days, 220 mg/kg/day (mannose-6-phosphate), 200 mg/kg/day (others); for % with clinical signs of EAE: n=5; for % with clinical signs of EAE / Mean Maximum clinical score: 220 mg/kg/day (mannose 6-P) or 200 mg/kg/day (others); for Mean Maximum clinical score: controls 2.8 (saline), 3.3 (PEG 200)
Experimental: International Patent PCT/AU89/00350 identified several simple phosphosugars which had potent anti-inflammatory activity against cell-mediated inflammatory diseases such as EAE. The novel mannose 6-phosphate derivatives of the present invention have improved pharmacodynamic and pharmacokinetic properties. Thus, some of these agents are effective against EAE when they are injected either subcutaneously or intraperitoneally in rats, whereas the parent substance, mannose-6-phosphate is ineffective when administered in this manner.
In this Example, some typical novel mannoside 6-phosphates of the present invention were compared with mannose-6-phosphate for their ability to inhibit the development of […] in rats. In this experiment, according to the method of Panitch and McFarlin (18), donor Lewis rats were immunised with 50 μg myelin basic protein in complete Freund's adjuvant and 10-12 days later the spleens from these rats were removed and made into a single cell suspension. Thus, these cells, 2×10^6 ml^-1, were cultured in RPMI medium with 5% fetal calf serum, 5×10^-5 M 2-mercaptoethanol, 2 mM L-glutamine plus 30 μg/ml penicillin, 50 μg/ml streptamycin sulfate. Con A was added at 2 μg ml^-1 and cultures were incubated at 37° C. in a humidified atmosphere of 5% CO2, 7% O2 and the balance N2. Cells were harvested after 72 hours, washed once wit Hanks balanced salt solution, and 70×10^6 viable cells were then transferred to naive Lewis rat recipients via a lateral tail vein in order to induce EAE.

[3] = Contact sensitivity to picryl chloride, ear swelling; type: in vivo, CBA female mice; settings: n=5; for inhibition at 330 mg/kg/day: Mus musculus, sc, Table 3, 6 injections s.c.; for % swelling: Table 3, 330 mg/kg/day, 6 injections s.c., control = 100
Excerpt: Contact sensitivity is a type of delayed hypersensitivity which ours following exposure to sensitising agents including low molecular weight reactive chemical entities such as dinitro chlorobenzene (DNCB) and picryl chloride (19,21) as well as the sensitising agents found in poison ivy and poison oak (19). In sensitised individuals, in those having previously been exposed to the sensitising agent, inflammatory leucocytes migrate from the blood stream into the area immediately beneath the affected tissue producing induration which is a cardinal characteristic of the delayed-type hypersensitivity reaction (21). Thus, contact sensitivity is a well recognised cell-mediated inflammatory response. In the experiment outlined below the novel mannoside 6-phosphates were compared with mannose-6-phosphate for their ability to inhibit contact sensitivity induced by picryl chloride.
In this experiment twenty CBA female mice were sensitised to picqyl chloride after the method of Enander et al., (22) by applying 200 μl of picryl chloride solution (0.5% in 95% ethanol) to an area (approximately 2 cm^2) of their shaved abdomens. Seven days following sensitisation these animals were divided into four groups of five mice which bad been treated with either mannose-6-phosphate (55 mg/kg), methyl mannoside 6-phosphate (330 mg/kg) or decyl mannoside 6-phosphate (55 mg/kg) or saline (control) 30 minutes before they were challenged by applying 100 μl of picryl chloride solution (1% in 95% ethanol) to both sides of their left ears. Their right ears (control) were treated with 100 μl of 95% ethanol. Three and one half hours following challenge a second injection of drug or saline was given and this was repeated four times at 4 hour intervals. Four hours following the last injection the mice were anaesthetised (ether) and the contact sensitivity determined by comparing the thickness of the picryl chloride treated ears with those of the control ears. As shown in Table 3 the novel mannoside phosphates inhibited accumulation of inflammatory cells in challenged ears more effectively than mannose-6-phosphate.

[4] = Delayed-type hypersensitivity (DTH) footpad swelling, sheep red blood cell antigen; type: in vivo, CBA mice; settings: Table 2, q.i.d. s.c., n=5, mean, 220 mg/kg/day (mannose 6-phosphate) or 200 mg/kg/day (others); for inhibition at 220 mg/kg: Mus musculus, Erythrocyte; for % swelling: control = 100
[5] = experimental animals; EAE, adjuvant-induced arthritis, DTH; WO 90/01938; cited from earlier work
[6] = Table 1, t.i.d. s.c., seven days

Row | inhibition of binding of the natural ligand, in words [1] | Structure (SMILES) | inhibition of development of disease (EAE), in words [2] | % with clinical signs of EAE [2, 6] | Mean Maximum clinical score [2, 6] | inhibition at 330 mg/kg/day [3] | % swelling [3] | inhibition at 220 mg/kg [4] | % swelling [4] | Mean Duration ([2]; Table 1, t.i.d. s.c., seven days, 220 mg/kg/day, saline control 4.1) | Mean day of onset ([2]; Table 1, t.i.d. s.c., seven days, 220 mg/kg/day, saline control 5.2) | effectiveness against EAE, in words ([2]; injected either subcutaneously or intraperitoneally in rats) | anti-inflammatory activity against cell-mediated inflammatory diseases, in words [5]
1 | effective inhibitor of binding | O=P(O)(O)OC[C@H]1OC(OCCCCCCOC2O[C@H](COP(=O)(O)O)[C@@H](O)[C@H](O)[C@@H]2O)[C@@H](O)[C@@H](O)[C@@H]1O (stereo partly drawn) [1,6-hexamethyene di(D-mannoside 6-phosphate)] |  |  |  |  |  |  |  |  |  |  | 
2 |  | O=P(O)(O)OC[C@H]1OC(OCCCCCCCCCCCCCCCCOC2O[C@H](COP(=O)(O)O)[C@@H](O)[C@H](O)[C@@H]2O)[C@@H](O)[C@@H](O)[C@@H]1O (stereo partly drawn) [1,16-hexadecamethylene di(D-mannoside 6-phosphate)] | completely inhibited the development of disease | 0% | 0 |  |  |  |  |  |  |  | 
3 |  | CCCCCCCCCCOC1O[C@H](COP(=O)(O)O)[C@@H](O)[C@H](O)[C@@H]1O (stereo partly drawn) [decyl mannoside 6-P, Decyl D-mannoside 6-phosphate] | completely inhibited the development of disease | 0% | 0 | 77% | 23% | 70% | 30% |  |  |  | 
4 |  | CCCCCCCCCCCCCCCCOC1O[C@H](COP(=O)(O)O)[C@@H](O)[C@H](O)[C@@H]1O (stereo partly drawn) [hexadecyl mannoside 6-P, hexadecyl D-mannoside 6-phosphate] | completely inhibited the development of disease | 0% | 0 |  |  | 80% | 20% |  |  |  | 
5 |  | O=P(O)(O)OC[C@H]1OC(O)[C@@H](O)[C@@H](O)[C@@H]1O (stereo partly drawn) [mannose-6-phosphate, D-mannose-6-phosphate, reference compound] | ineffective in inhibiting development of disease symptoms | 100% | 2.8 | 17% | 83% | 20% | 80% | 4.0 days | 5.2 days | ineffective | shown to have anti-inflammatory activity
6 |  | CO[C@H]1O[C@H](COP(=O)(O)O)[C@@H](O)[C@H](O)[C@@H]1O [methyl mannoside 6-P, Methyl α-D-mannoside 6-phosphate] |  |  |  | 50% | 50% |  |  |  |  |  | 
